Results from the CheMixHub ionic liquid set.

Test: xn = mol fraction of the nth substance listed

CC[n+]1ccn(C)c1.O=S(=O)([O-])C(F)(F)F + CC#N
viscosity [mPa·s], 100 kPa
Details | 298.15 K | 303.15 K | 308.15 K | 313.15 K | 318.15 K | 323.15 K
x1 = 0.3948 | 4.5 | 4.1 | 3.8 | 3.5 | – | –
x1 = 0.498 | 7.4 | 6.6 | 6 | 5.4 | 4.9 | 4.4
x1 = 0.595 | – | 9.5 | 8.4 | 7.5 | 6.7 | 6
x1 = 0.6936 | – | – | – | – | 9.5 | 8.3
x1 = 0.9005 | 34 | – | – | – | – | –
x1 = 1 | 46 | 38 | – | – | – | –

CC[n+]1ccn(C)c1.O=S(=O)([O-])C(F)(F)F + O + CC(=O)[O-].CC[n+]1ccn(C)c1
293.15 K, 100 kPa
Details | viscosity [mPa·s]
x2 = 0.337, x3 = 0.64 | 91
x2 = 0.341, x3 = 0.612 | 87
x2 = 0.348, x3 = 0.555 | 80
x2 = 0.359, x3 = 0.492 | 72

CC[n+]1ccn(C)c1.O=S(=O)([O-])C(F)(F)F + O=S(=O)([O-])C(F)(F)F.[Li+]
101 kPa, x1 = 1
Details | electrical conductivity [S/m]
288.15 K | 0.605
298.15 K | 0.859
333.15 K | 2.24

O=S(=O)([O-])C(F)(F)F.[Li+] + CC[n+]1ccn(C)c1.O=S(=O)([N-]S(=O)(=O)C(F)(F)F)C(F)(F)F
electrical conductivity [S/m], 101 kPa
Details | 288.15 K | 298.15 K | 333.15 K
x1 = 0.01919 | 0.57 | 0.819 | 2
x2 = 0.9274 | – | 0.672 | 1.71
x2 = 0.9587 | 0.515 | 0.766 | 1.93

CCCCCCCC[n+]1ccc2ccccc2c1.O=S(=O)([N-]S(=O)(=O)C(F)(F)F)C(F)(F)F + Cc1ccccc1
101 kPa
Details | viscosity [mPa·s]
298.15 K, x2 = 0.0818 | 308
298.15 K, x2 = 0.4775 | 50.6
298.15 K, x2 = 0.4902 | 48.5
308.15 K, x2 = 0.0818 | 162.6
308.15 K, x2 = 0.2746 | 81.6
308.15 K, x2 = 0.4295 | 41.74
308.15 K, x2 = 0.4775 | 32.56
318.15 K, x2 = 0.1949 | 67
318.15 K, x2 = 0.6148 | 11.19
318.15 K, x2 = 0.8672 | 2.19
328.15 K, x2 = 0.3638 | 25.85
328.15 K, x2 = 0.4295 | 19.34
328.15 K, x2 = 0.5467 | 12.11
328.15 K, x2 = 0.7004 | 5.51
338.15 K, x2 = 0 | 44.8
338.15 K, x2 = 0.4775 | 11.71

CC[n+]1ccn(C)c1.O=S(=O)([O-])C(F)(F)F + F[P-](F)(F)(F)(F)F.[Li+]
101 kPa, x1 = 1
Details | electrical conductivity [S/m]
288.15 K | 0.605
298.15 K | 0.859
333.15 K | 2.24

C[n+]1ccn(CCCC#N)c1.F[B-](F)(F)F + CC#N
100 kPa
Details | electrical conductivity [S/m]
288.15 K, x1 = 0.5996 | 0.36
293.15 K, x1 = 0.4999 | 0.69
293.15 K, x1 = 0.5996 | 0.47
303.15 K, x1 = 0.4999 | 1
303.15 K, x1 = 0.8885 | 0.31
308.15 K, x1 = 0.7001 | 0.72
323.15 K, x1 = 0.8024 | 0.87
